Positions of bridges follow the written chain, without caps; N, C: chain ends. Non-standard residues stand in square brackets, D forms with d. Residues, ends and D or L forms follow the SMILES beside them. Chains are numbered I, II in the order given. *: point of attachment. Quinaldoyl(3-OH) = O=C(c1nc2ccccc2cc1O)*; NMeC = CN[C@@H](CS)C(=O)O
Tested on: A549
Experiment: Cytotoxicity against human A549 cells
Assay type: functional, cell-based

| Structure (SMILES) | EC50 [nM] |
| --- | --- |
| COC(=O)[C@H](CSC)N(C)C(=O)[C@@H]1CSSC[C@@H](NC(=O)c2nc3ccccc3cc2O)C(=O)NCC(=O)N1C ({Quinaldoyl(3-OH)}-[dC]G[NMeC][NMeC](Me)-OMe; disulfide 1-3) | 2900 |
| CSC[C@H]1C(=O)SC[C@@H](NC(=O)c2nc3ccccc3cc2O)C(=O)NCC(=O)N(C)[C@H]2CSSC[C@@H](C(=O)N1C)N(C)C(=O)CNC(=O)[C@H](NC(=O)c1nc3ccccc3cc1O)CSC(=O)[C@H](CSC)N(C)C2=O [THIOCORALINE A] (I: {Quinaldoyl(3-OH)}-[dC]G[NMeC][NMeC](Me) / II: {Quinaldoyl(3-OH)}-[dC]G[NMeC][NMeC](Me); thioester I:1-II:C, I:C-II:1; disulfide I:3-II:3) | 10 |

Reference: ChEMBL document CHEMBL3632499, “Synthesis and Antiproliferative Activity Evaluation of the Disulfide-Containing Cyclic Peptide Thiochondrilline C and Derivatives” (J Nat Prod, 2015)
